In patent US20250066344A1 (BRISTOL-MYERS SQUIBB COMPANY, priority 2021, published 2025):

Assays:
[1] = intravenous (IV) formulation; cited from earlier work
human RXFP1 = molecular target: T1, human RXFP1 (Homo sapiens, UniProt Q9HBX9); assay: RXFP1 cyclic adenosine monophosphate (cAMP) assay, hRXFP1 HEK293; assay type: cell-based; conditions: HEK293 cells stably expressing human RXFP1; 30 min at room temperature; HTRF cAMP
T1 construct: expressed in transfected cells
T1 sequence (Q9HBX9 1-757): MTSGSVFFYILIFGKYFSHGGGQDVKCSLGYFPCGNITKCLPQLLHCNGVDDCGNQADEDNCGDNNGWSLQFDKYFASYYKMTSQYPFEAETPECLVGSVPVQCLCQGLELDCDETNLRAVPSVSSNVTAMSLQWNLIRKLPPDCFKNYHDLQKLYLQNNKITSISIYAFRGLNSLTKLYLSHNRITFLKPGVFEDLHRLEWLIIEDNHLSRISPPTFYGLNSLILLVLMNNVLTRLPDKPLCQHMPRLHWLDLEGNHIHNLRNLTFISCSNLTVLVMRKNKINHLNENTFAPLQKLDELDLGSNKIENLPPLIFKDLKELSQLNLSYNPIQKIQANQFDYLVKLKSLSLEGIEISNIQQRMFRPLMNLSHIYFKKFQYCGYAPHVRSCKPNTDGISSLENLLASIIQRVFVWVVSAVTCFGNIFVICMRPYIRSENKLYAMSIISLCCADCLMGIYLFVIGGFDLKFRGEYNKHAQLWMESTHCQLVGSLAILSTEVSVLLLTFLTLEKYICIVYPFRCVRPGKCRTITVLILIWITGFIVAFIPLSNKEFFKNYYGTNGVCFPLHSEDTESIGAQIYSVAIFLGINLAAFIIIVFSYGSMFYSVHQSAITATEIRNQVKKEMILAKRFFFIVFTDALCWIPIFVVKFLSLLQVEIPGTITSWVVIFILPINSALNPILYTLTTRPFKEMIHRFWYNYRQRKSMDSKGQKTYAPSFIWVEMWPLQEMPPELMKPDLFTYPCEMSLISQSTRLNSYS
Outline: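 HEK293 cells stably expressing human RXFP1 were exposed to compounds (0.010 nM–50 μM, 2% DMSO) for 30 min at room temperature in HBSS/HEPES buffer with 0.5 mM IBMX. Intracellular cAMP was measured by HTRF against a cAMP standard curve; EC50 from 4-parameter logistic fit.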

| Compound | first-phase pharmacokinetic half-life [1] | EC50 (human RXFP1) |
| --- | --- | --- |
| Serelaxin | 5.4 min |  |
| COc1ccc(C2=NOC3(C2)CN(C(=O)CO)C3)cc1C(=O)Nc1cc2c(cc1C(=O)Nc1ccc(F)c(C(F)(F)F)c1)OC(F)(F)O2 [Example 75, 2,2-difluoro-N-(4-fluoro-3-(trifluoromethyl)phenyl)-6-(5-(2-(2-hydroxyacetyl)-5-oxa-2,6-diazaspiro[3.4]oct-6-en-7-yl)-2-methoxybenzamido) benzo[d][1,3]dioxole-5-carboxamide] |  | 231 nM |
| COc1ccc(C2=NOC(C)(CO)C2)cc1C(=O)Nc1cc2c(cc1C(=O)Nc1ccc(F)c(C(F)(F)F)c1)OC(F)(F)O2 (single isomer, unassigned) [Example 71, 2,2-difluoro-N-(4-fluoro-3-(trifluoromethyl)phenyl)-6-(5-(5-(hydroxymethyl)-5-methyl-4,5-dihydroisoxazol-3-yl)-2-methoxybenzamido) benzo[d][1,3]dioxole-5-carboxamide] |  | 43 nM |
